{"source": "patent US20230184643A1", "about": "“METHOD FOR MEASURING OR IDENTIFYING A COMPONENT OF INTEREST IN SPECIMENS” (SHIMADZU CORPORATION, priority 2020, published 2023)", "origin": "cited, not measured here", "conditions": "Table 4.1; Drug bank accessed November 2020", "note": "Marks after values point to notes of the source that are not given here."}
{"molecule": "CN[C@@H]1[C@@H](O)[C@@H](O[C@@H]2[C@@H](O)[C@H](O[C@H]3OC(CN)=CC[C@H]3N)[C@@H](N)C[C@H]2N)OC[C@]1(C)O", "note": "[Sisomicin]", "values": [{"measurement": "LogP", "result": "−4.3^a"}]}
